Experimental data reported in PMC3348654 (The Journal of Neuroscience, 2012).

Assays:
[1] = C and EC metabolite levels in rat brain tissue after 10 days repeated dosing; type: in vivo; conditions: rats, following repeated dosing with GP or with Mo
[2] = system: CaMKII; assay: Western blot of phospho- and total CaMKII in hippocampal slices; type: cell-based; conditions: 300 nM, 5 hours, hippocampal slices from old Tg2576 mice
[3] = system: PKA; assay: PKA activity assay and PKA IIa protein content in hippocampal slices; type: cell-based; conditions: 300 nM, 5 hours, hippocampal slices from old Tg2576 mice
[4] = system: Erk/MAP kinase 1/2 (Thr185/Tyr187); assay: Multiplex phospho-Erk1/2 immunoassay in hippocampal slices; type: cell-based; conditions: 300 nM, 5 hours, hippocampal slices from old Tg2576 mice
[5] = system: MEK1 (Ser222); assay: Multiplex phospho-MEK immunoassay in hippocampal slices; type: cell-based; conditions: 300 nM, 5 hours, hippocampal slices from old Tg2576 mice
[6] = system: hippocampal slices from Tg2576 mice; assay: Electrophysiological recordings; type: cell-based; conditions: 300 nM, 4–5 h, hippocampal slices from old Tg2576 mice, versus vehicle
[7] = system: CREB (Ser133); assay: Phospho-CREB immunoassay in hippocampal slices; type: cell-based; conditions: 300 nM, 5 hours, hippocampal slices from old Tg2576 mice, versus vehicle
[8] = system: brain slices from wild type mice; assay: Electrophysiological recordings in brain slices from age-matched wild type mice; type: cell-based; conditions: 300 nM

SMILES	free C and EC contents in the brain [1]	level of [Thr286]-phosphorylated, active CaMKII [2]	level of total CaMKII [2]	PKA (PKA activity assay and PKA IIa protein content) [3]	phosphorylation status of Erk1/2 (Thr185/Tyr187) [4]	phosphorylation status of MEK [5]	basal synaptic transmission in the CA1 region [6]	levels of [Ser133]-phosphorylated, active CREB [7]	LTP [8]	basal synaptic transmission [8]
Oc1cc(O)c2c(c1)O[C@H](c1ccc(O)c(O)c1)[C@H](O)C2 [EC, (−)-epicatechin]	trace contents (below levels for quantification)	–	–	–	–	–	–	–	–	–
Oc1cc(O)c2c(c1)OC(c1ccc(O)c(O)c1)C(O)C2 (single isomer, unassigned; (+)) [C, (+)-catechin]	trace contents (below levels for quantification)	–	–	–	–	–	–	–	–	–
COc1cc([C@H]2Oc3cc(O)cc(O[C@@H]4O[C@H](C(=O)O)[C@@H](O)[C@H](O)[C@H]4O)c3C[C@H]2O)ccc1O [3’-O-Me-EC-Gluc, 3’-O-methyl-epicatechin-5-O-β-glucuronide]	–	significantly increased	without influencing	nor did it affect	did not modulate	did not modulate	significantly increased	significantly increased	did not have any effect	did not have any effect
